According to BindingDB's records for doi:10.1016/s0960-894x(01)00080-4 (Novartis Pharma Research, 2001):

Biological target: Epidermal growth factor receptor (Homo sapiens) (UniProt P00533)
Assay: Tested for inhibitory activity against Epidermal growth factor receptor

Chain of Epidermal growth factor receptor (Homo sapiens) (P00533 whole entry, looked up): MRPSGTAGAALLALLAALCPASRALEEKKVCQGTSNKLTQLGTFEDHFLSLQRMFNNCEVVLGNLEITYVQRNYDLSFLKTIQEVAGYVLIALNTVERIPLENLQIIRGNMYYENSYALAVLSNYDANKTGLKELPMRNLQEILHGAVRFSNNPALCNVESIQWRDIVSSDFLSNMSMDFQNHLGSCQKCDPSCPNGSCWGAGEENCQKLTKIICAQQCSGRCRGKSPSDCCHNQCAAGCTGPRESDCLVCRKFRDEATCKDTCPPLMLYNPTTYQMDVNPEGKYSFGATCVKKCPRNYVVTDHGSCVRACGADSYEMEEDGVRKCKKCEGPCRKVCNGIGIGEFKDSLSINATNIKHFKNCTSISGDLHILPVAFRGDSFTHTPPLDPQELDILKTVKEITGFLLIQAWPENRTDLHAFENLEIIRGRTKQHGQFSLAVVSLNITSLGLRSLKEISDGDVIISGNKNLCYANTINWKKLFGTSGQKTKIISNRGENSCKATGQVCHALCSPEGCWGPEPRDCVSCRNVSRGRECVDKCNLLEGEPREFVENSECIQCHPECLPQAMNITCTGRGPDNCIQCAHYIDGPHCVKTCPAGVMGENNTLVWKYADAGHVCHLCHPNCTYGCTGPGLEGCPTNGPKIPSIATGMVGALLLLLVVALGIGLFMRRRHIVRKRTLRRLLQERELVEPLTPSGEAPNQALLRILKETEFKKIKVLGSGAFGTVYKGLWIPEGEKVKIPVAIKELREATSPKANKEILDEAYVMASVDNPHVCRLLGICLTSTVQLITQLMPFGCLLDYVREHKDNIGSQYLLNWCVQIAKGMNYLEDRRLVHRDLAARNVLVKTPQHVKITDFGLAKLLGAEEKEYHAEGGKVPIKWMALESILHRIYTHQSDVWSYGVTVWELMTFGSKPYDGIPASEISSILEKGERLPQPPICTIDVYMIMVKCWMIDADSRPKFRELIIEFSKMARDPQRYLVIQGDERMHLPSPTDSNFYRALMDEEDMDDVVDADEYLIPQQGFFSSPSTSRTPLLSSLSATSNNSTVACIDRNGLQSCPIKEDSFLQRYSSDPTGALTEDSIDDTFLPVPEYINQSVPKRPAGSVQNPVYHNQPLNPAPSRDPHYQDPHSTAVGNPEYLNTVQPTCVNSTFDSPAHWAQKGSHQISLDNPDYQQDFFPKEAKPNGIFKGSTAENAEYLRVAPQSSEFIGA

IC50 | SMILES
340 nM | COc1cccc(-c2cn(C3CCN(CCN(C)CCO)CC3)c3ncnc(N)c23)c1 [2-((2-(4-(4-amino-5-(3-methoxyphenyl)-7H-pyrrolo[2,3-d]pyrimidin-7-yl)piperidin-1-yl)ethyl)(methyl)amino)ethanol]
620 nM | COCCNCCN1CCC(n2cc(-c3cccc(OC)c3)c3c(N)ncnc32)CC1 [7-{1-[2-(2-Methoxy-ethylamino)-ethyl]-piperidin-4-yl}-5-(3-methoxy-phenyl)-7H-pyrrolo[2,3-d]pyrimidin-4-ylamine]

More lines, now with the values behind:

SMILES | IC50
COC(=O)CN1CCC(n2cc(-c3cccc(O)c3)c3c(N)ncnc32)CC1 [{4-[4-Amino-5-(3-hydroxy-phenyl)-pyrrolo[2,3-d]pyrimidin-7-yl]-piperidin-1-yl}-acetic acid methyl ester] | 290 nM
Nc1ncnc2c1c(-c1cccc(O)c1)cn2C1CCN(CCO)CC1 [3-(4-amino-7-(1-(2-hydroxyethyl)piperidin-4-yl)-7H-pyrrolo[2,3-d]pyrimidin-5-yl)phenol] | 360 nM
CN(C)C(=O)CN1CCC(n2cc(-c3cccc(O)c3)c3c(N)ncnc32)CC1 [2-{4-[4-Amino-5-(3-hydroxy-phenyl)-pyrrolo[2,3-d]pyrimidin-7-yl]-piperidin-1-yl}-N,N-dimethyl-acetamide] | 400 nM
